Data on one molecule can be found in ChEMBL document CHEMBL3832549, “DailyMed|setid=7633c9b3-dfb5-446f-a260-e44b6e48afa2 | BUDESONIDE- budesonide capsule|Carilion Materials Management”.

The structures appear in SMILES notation.

A short description of series [1]: (§1) Evaluation of pharmacokinetic parameters for Budesonide following single oral administration of Budesonide capsules (enteric coated) to healthy subjects and/or patients with Crohn's disease. The following applies: human, in vivo, dosed compound id 9, dosed compound name BUDESONIDE, regimen Single dose, tissue Plasma. More on the design: dose 9 mg, route oral. It counts as ADME, organism-based.

A further series deals with Homo sapiens. The series is described as §1. The format is ADME, organism-based. More on the design: dose 9 mg, route oral. To be noted: in vivo, po, dosed compound id 9, dosed compound name BUDESONIDE, gender male and female, regimen Single dose, tissue Plasma.
Where [2] appears, read: po, 9 mg, gender male and female.

Regarding `CCCC1O[C@@H]2C[C@H]3[C@@H]4CCC5=CC(=O)C=C[C@]5(C)[C@H]4[C@@H](O)C[C@]3(C)[C@]2(C(=O)CO)O1` (stereo not given in full) [BUDESONIDE], the Tmax in series [1] (9 mg, route oral) lay within 0.5 to 10 h. In series [1] (setting [2]), this molecule showed an AUC of 0.03 µM·h and a Cmax of 5 nM. In addition, the fraction unbound in series [1] (po, at 9 mg, gender male and female, route oral, read-out: Protein binding) lay within 0.1 to 0.15. Further, the Vd with Homo sapiens lay within 2.2 to 3.9 L/kg.

By Tmax is commonly meant the time from dosing to the highest level. By AUC is commonly meant concentration integrated over time. A high value points to high exposure. Broadly, the Cmax is the highest concentration seen after dosing.
